Assay results from patent publication US7041639B2, “Depsipeptide and congeners thereof for use as immunosuppressants” (XCYTE Therapies, Inc., priority 1999, dated 2006).
Several values for one entry are separate records, joined by “and”; a condition that tells them apart may be missing. Equal entries are not always repeated.

Columns and labels:
A1.1 T-cell hybridoma = conditions: Wang et al., Oncogene 1998; cited from earlier work
[1] = test system: Haras transfected mouse fibroblasts (NIH-3T3); conditions: background statement; cited from earlier work
CD4 cells = assay: Intracellular DNA content by propidium iodide staining (cell cycle); type: cell-based, human; conditions: 3×28 beads 24 hours; 10 to 100 ng/ml; FIG. 12
Protocol: Unstimulated and stimulated (3×28 bead stimulation) CD4 cells were incubated with varying concentrations FR901228 and the intracellular DNA content was measured by staining with propidium iodide (PI) using standard procedures. In brief, the cells were stained with a mixture of 1 μg/ml PI and 0.03% saponin in PBS for about 20 to 30 minutes. […] Accordingly, FR901228 appears to inhibit the cell cycle of activated T-cells prior to entry of S-phase.

NODSCID mice = assay: Diabetes onset in NODSCID mice given NOD spleen cells; type: in vivo; conditions: 0.5 mg/kg i.p. every other day
Protocol: (§1) FR901228 was dissolved in 10% DMSO in PBS and were administered i.p. to NOD or NODSCID mice every other day. Controls contained only the DMSO excipient (10% DMSO in PBS). […] 0.5 mg/kg of FR901228 was administered at each treatment to twenty animals (ten NOD animals and ten NODSCID animals). Every two weeks the number of mice in each treatment group that had become diabetic was evaluated by measuring blood glucose levels using a glucometer at bi-weekly intervals. A reading of more than 200 mg/dl of blood glucose on two consecutive observations was considered indicative of frank diabetes.

NOD mice = assay: Diabetes onset in NOD mice; type: in vivo; conditions: 0.5 mg/kg i.p. every other day; ten NOD animals
Protocol: as §1

[2] = test system: activation markers on CD4 cells; assay: Activation marker assays by flow cytometry; type: cell-based, human
Text: The effect of FR901228 on the induction of various activation markers on CD4 cells is studied. In this regard, cells are labeled with one or more of the following antibodies: anti-human CD4 Ab (Immunotech, Fullerton, Calif.), FITC-coupled anti-human CD11a Ab (Pharmingen), FITC-coupled anti-human CD26 Ab (Pharmingen), FITC-coupled anti-human CD49d Ab (Coulter), FITC-coupled anti-human CD54 Ab (Pharmingen and Becton Dickinson), FITC-coupled anti-human CD95 Ab (Pharmingen), FITC-coupled anti-human CD134 Ab (Pharmingen), FITC-coupled anti-human CD25 Ab (Becton Dickinson, Fullerton, Calif.), FITC-coupled anti-human CD69 Ab (Becton Dickinson), FITC- or PE-coupled anti-human CD154 Ab (Becton Dickinson), or FITC- or PE- coupled IgG1 isotype control Ab. Cells, 2×10^5 are labeled for 20 minutes at 4° C. with 2 μl of each antibody in a final volume of 30 μl, washed and resuspended in 1% parformaldehyde (Sigma, St. Louis, Mo.). […] In contrast, CD69 induction is not affected by 100 ng/ml FR901228 (FIG. 5C).

T-cells = assay: Cell survival / viability (sub-G1 DNA, membrane integrity, propidium iodide exclusion); type: cell-based, human
Protocol: Cells are stimulated by three different methodologies 1) Dynabeads (M-450) covalently coupled to anti-CD3 (OKT-3) and anti-CD28 (9.3) antibodies (3×28 beads) according to the manufacturer's instructions (Dynal), 3 beads/cell, 2) Ionomycin (Calbiochem, La Jolla, Calif.) (100 ng/ml) and phorbol 12-myristate-13-acetate (PMA) (Calbiochem) (10 ng/ml), 3) allogeneic dendritic cells (25,000 dendritic cells/200,000 CD4 cells). All cells are stimulated at a concentration of 1×10^6 cells/ml. Cells are incubated with compounds of structure (I) (e.g., FR901228) (NCI, Bethesda, Md.) for 1 to 2 hours prior to stimulation as outlined above. Proliferation assays are conducted in quadruplicate in 96 well flat-bottom plates. Cells are stimulated at 1×10^6 cells/ml in a final volume of 200 μl. Proliferation is measured by MTT assay (MTT assay kit, Chemicon International Inc., Temecula, Calif.) at day 3 (stimulation method 1 and 2) or at day 6 (stimulation method 3), and results are presented as mean value of quadruplicates. PBL cultures or purified CD4 cell cultures are stimulated with 3×28 beads, ionomycin/PMA or allogenic dendritic cells. […] Further, […] cell survival is not affected by FR901228, as assessed by sub-G1 DNA measurement and integrity of the cell membrane (FIG. 5D). […]

[3] = 3×28 beads, 20 ng/ml, FIGS. 8A–8B

**Q.** Which results are given for C/C=C1\NC(=O)[C@H]2CSSCC/C=C/[C@H](CC(=O)N[C@H](C(C)C)C(=O)N2)OC(=O)[C@H](C(C)C)NC1=O [FR901228]?
**A.** CD3-induced IL-2 production (A1.1 T-cell hybridoma): did not inhibit; transformation of Haras transfected NIH-3T3 [1]: inhibit transformation; DNA synthesis in stimulated CD4 cells (CD4 cells): DNA synthesis does not take place; delay of onset of frank diabetes versus excipient only (NODSCID mice; frank diabetes = more than 200 mg/dl on two consecutive observations): at least two; blood glucose / status of single mouse, column 6 (5/9) (NODSCID mice; NODSCID, head 'age (wks.)' 6, one line per mouse): 261 mg/dL; blood glucose / status of single mouse, (5/23) (NODSCID mice; NODSCID, head 'age (wks.)' 8, one line per mouse, 0.5 mg/kg): 547 mg/dL and 527 mg/dL; blood glucose / status of single mouse, (6/6) (NODSCID mice; NODSCID, head 'age (wks.)' 10, one line per mouse, 0.5 mg/kg): 482 mg/dL and 526 mg/dL and 343 mg/dL and 317 mg/dL and 299 mg/dL and 412 mg/dL and 441 mg/dL and 494 mg/dL and 399 mg/dL and 285 mg/dL; blood glucose / status of single mouse, (6/20) (NODSCID mice; NODSCID, head 'age (wks.)' 12, one line per mouse, 0.5 mg/kg): High (2×) and 566 mg/dl and 596 mg/dl and 568 mg/dl and 539 mg/dl and 338 mg/dl and 240 mg/dl and Dead and 576 mg/dl; blood glucose / status of single mouse, 7/4 (NODSCID mice; NODSCID, head 'age (wks.)' 14, one line per mouse, 0.5 mg/kg): 536 mg/dl and 402 mg/dl and Dead (5×) and 494 mg/dl and 558 mg/dl; blood glucose / status of single mouse, column 16 (7/18) (NODSCID mice; NODSCID, head 'age (wks.)' 16, one line per mouse): 571 mg/dL; blood glucose / status of single mouse, column 18 (8/1) (NODSCID mice; NODSCID, head 'age (wks.)' 18, one line per mouse): Dead; development of frank diabetes during the 18 week study (NOD mice): no NOD mouse treated with the compound developed frank diabetes; CD69 induction ([2]; 100 ng/ml, FIG. 5C): not affected; CD69 induction or activation induced downregulation of CD62L [2, 3]: no significant affect; induction of CD25, CD134, CD137w, CD154, CD11a, CD54, and CD95 on CD4 T-cells [2, 3]: inhibition; lowest concentration at which CD154 expression is strongly suppressed ([2]; after 3×28 bead stimulation, FIG. 5A): 10 ng/mL; lowest concentration at which CD25 expression is strongly suppressed ([2]; after 3×28 bead stimulation, FIG. 5B): 10 ng/mL; cell survival by sub-G1 DNA measurement and integrity of the cell membrane (T-cells; FIG. 5D): not affected; cell viability by propidium iodide (PI) exclusion (T-cells; concentrations up to 100 ng/ml): not significantly affected
